Several values for one entry are separate records, joined by “and”; a condition that tells them apart may be missing. Identical values can stand only once. Counter-ions that a name gives are not always drawn.
Test system: male CD1 mice
Test: Anti-depressant activity: forced swimming test in mice
Format: in vivo
Conditions: 30 mg/kg ip
Description: A depressed state can be induced in mice by forcing them to swim in a narrow cylinder from which they cannot escape. After an initial period of vigorous activity, the mice adopt a characteristic immobile posture which is readily identifiable.
Fifty-five male CD1 mice weighing 20-25 g at the start of the study were obtained from Charles River Laboratories Espafia (Barcelona, Spain). These mice underwent a prior acclimatization period of 6 days before the start of the experimental work, during which they underwent a veterinary examination in order to assure their good health.
The mice were allotted at random to five groups, each consisting of ten animals. The rest of the animals (one per group) were kept as reserve (these animals are not taken into account in the final results). The experimental design is described in the Table 7 below.
The mice began a fasting period of approximately 6 hours before starting the treatments. At the beginning of the test, the corresponding treatments were administrated by the assigned route at a volume of 10 mL/kg. The test item was administrated at three dose levels of 100, 200 and 300 mg/kg by oral route (gastric gavage or po). The reference item was administrated at the dose level of 30 mg/kg by intraperitoneal route or ip. The Control group only received the vehicle (water for injection) orally (po) by gastric gavage.
Six minutes after the administration of the treatments, each mouse was dropped into the cylinder containing water (forcing it to swim) and left there for 6 minutes, the testing time. The time of immobility of the animal was recorded. A mouse was considered immobile when it ceased struggling and remained floating motionless in the water making only those movements necessary to keep its head above water. […] Finally, once the test was over, the animals were sacrificed by cervical dislocation.

CN(C)CCCN1c2ccccc2CCc2ccccc21 [Imipramine HCl, Imipramine hydrochloride]
% decrease versus Control (time of immobility): 56.2%
Time of immobility (s) individual values (animal no. 1-10, hydrochloride): 90 s and 140 s and 64 s and 51 s and 3 s and 91 s and 37 s
Time of immobility (s), mean (last 4 min of 6 min test, Mean ± SEM, n = 10, hydrochloride): 80.8 ± 13.14 s and 80.8 s

— patent publication US7318939B2 (Vita Green Health Products Co., Ltd., priority 2006, dated 2008)
